Measured values: PubChem BioAssay (NCI)
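Results reflect a 48-hour exposure of cells in 96-well plates to compound at five concentrations. TGI is the concentration that stops growth completely.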

Tests used:
Assay in all cases: NCI anticancer screen, dose series, 48 h
[1] = test system: T-47D breast
[2] = test system: COLO 205 colon
[3] = test system: 786-0 renal
[4] = test system: SR leukemia
[5] = test system: A549 NSCLC
[6] = test system: HCT-116 colon
[7] = test system: MCF7 breast
[8] = test system: UACC-257 melanoma
[9] = test system: NCI/ADR-RES ovarian
[10] = test system: SW-620 colon
[11] = test system: OVCAR-8 ovarian
[12] = test system: U251 CNS
[13] = test system: HCC-2998 colon

## COc1cc2c(c(OC)c1OC)C(=O)[C@@H]1[C@H]2N1C(N)=O
[1]
  TGI: > 100 µM
[2]
  TGI: > 100 µM
[3]
  TGI: > 100 µM
[4]
  TGI: > 100 µM
[5]
  TGI: > 100 µM
[6]
  TGI: > 100 µM
[7]
  TGI: > 100 µM
[8]
  TGI: > 100 µM
[9]
  TGI: > 100 µM
[10]
  TGI: > 100 µM
[11]
  TGI: > 100 µM
[12]
  TGI: > 100 µM
[13]
  TGI: > 100 µM

## Cc1ccc([N+](=O)[O-])cc1NC1=NCCO1
[1]
  TGI: > 100 µM
[2]
  TGI: > 100 µM
[3]
  TGI: > 100 µM
[4]
  TGI: > 100 µM
[5]
  TGI: > 100 µM
[6]
  TGI: > 100 µM
[7]
  TGI: > 100 µM
[8]
  TGI: > 100 µM
[9]
  TGI: > 100 µM
[10]
  TGI: > 100 µM
[11]
  TGI: > 100 µM
[12]
  TGI: > 100 µM
[13]
  TGI: > 100 µM

## CC1(C)N=[N+]([O-])C1(C)C
[1]
  TGI: > 100 µM
[2]
  TGI: > 100 µM
[3]
  TGI: > 100 µM
[4]
  TGI: > 100 µM
[5]
  TGI: > 100 µM
[6]
  TGI: > 100 µM
[7]
  TGI: > 100 µM
[8]
  TGI: > 100 µM
[9]
  TGI: > 100 µM
[10]
  TGI: > 100 µM
[11]
  TGI: > 100 µM
[12]
  TGI: > 100 µM
[13]
  TGI: > 100 µM

## CC(C)(C)OC(=O)NCCCCC1NC(=O)[C@@H]2Cc3c([nH]c4ccccc34)C(C3CCCCC3)N2C1=O (some centres undefined)
[1]
  TGI: > 100 µM
[2]
  TGI: 55.1 µM
[3]
  TGI: > 100 µM
[4]
  TGI: 36.8 µM
[5]
  TGI: > 100 µM
[6]
  TGI: > 100 µM
[7]
  TGI: > 100 µM
[8]
  TGI: > 100 µM
[9]
  TGI: > 100 µM
[10]
  TGI: > 100 µM
[11]
  TGI: > 100 µM
[12]
  TGI: > 100 µM
[13]
  TGI: 67.3 µM

## NC(=O)NCCCC(NC(=O)OCCCCn1ccc(=O)[nH]c1=O)C(=O)O (centres undefined)
[1]
  TGI: > 100 µM
[2]
  TGI: > 100 µM
[3]
  TGI: > 100 µM
[4]
  TGI: > 100 µM
[5]
  TGI: > 100 µM
[6]
  TGI: > 100 µM
[7]
  TGI: > 100 µM
[8]
  TGI: > 100 µM
[9]
  TGI: > 100 µM
[10]
  TGI: > 100 µM
[11]
  TGI: > 100 µM
[12]
  TGI: > 100 µM
[13]
  TGI: > 100 µM

## CN(C)C(=O)O/N=C1/C(c2c(O)[nH]c3ccccc23)=Nc2ccccc21
[1]
  TGI: 50.6 µM
[2]
  TGI: > 100 µM
[3]
  TGI: 21.8 µM
[4]
  TGI: 35.4 µM
[5]
  TGI: > 100 µM
[6]
  TGI: > 100 µM
[7]
  TGI: > 100 µM
[8]
  TGI: > 100 µM
[9]
  TGI: > 100 µM
[10]
  TGI: > 100 µM
[11]
  TGI: 66.1 µM
[12]
  TGI: 33.9 µM
[13]
  TGI: > 100 µM

## Cc1nc2n(c1/C=C1/C(=O)Nc3cccc(Cl)c31)CCS2
[1]
  TGI: 54.9 µM
[2]
  TGI: > 100 µM
[3]
  TGI: > 100 µM
[4]
  TGI: > 100 µM
[5]
  TGI: > 100 µM
[6]
  TGI: > 100 µM
[7]
  TGI: > 100 µM
[8]
  TGI: > 100 µM
[9]
  TGI: > 100 µM
[10]
  TGI: > 100 µM
[11]
  TGI: 88.4 µM
[12]
  TGI: 34.7 µM
[13]
  TGI: > 100 µM

## O=C1CSC(c2ccc(Cl)cc2)N1c1ccc(Oc2ccc(Cl)cc2)c(Cl)c1 (centres undefined)
[1]
  TGI: 24.9 µM
[2]
  TGI: 34.3 µM
[3]
  TGI: 30.5 µM
[4]
  TGI: 41 µM
[5]
  TGI: 34.5 µM
[6]
  TGI: 29.8 µM
[7]
  TGI: 44.1 µM
[8]
  TGI: 33.2 µM
[9]
  TGI: 35.3 µM
[10]
  TGI: 45 µM
[11]
  TGI: 35.4 µM
[12]
  TGI: 36.2 µM
[13]
  TGI: 33.4 µM
